Laboratory results from patent US11160770B2, “Compounds, compositions and methods for treating oxidative DNA damage disorders” (Indiana University Research and Technology Corporation, priority 2011, dated 2021).

Molecular target: redox function of APE1 (Homo sapiens, UniProt P27695)
Test: Redox EMSA Assay
Type: biochemical
Conditions: 0.02 mM DTT
Procedure: EXAMPLE. Redox EMSA Assay. Conventional electrophoresis measuring Ape1 […] with 0.02 mM DTT is used to evaluate test compounds. Additional details are described in Fishel et al. Mol Cancer Ther. 2011 September; 10(9):1698-708 & Luo et al., Antioxid Redox Signal. 2008 November; 10(11):1853-67. […]

Sequence of redox function of APE1 (P27695 whole entry): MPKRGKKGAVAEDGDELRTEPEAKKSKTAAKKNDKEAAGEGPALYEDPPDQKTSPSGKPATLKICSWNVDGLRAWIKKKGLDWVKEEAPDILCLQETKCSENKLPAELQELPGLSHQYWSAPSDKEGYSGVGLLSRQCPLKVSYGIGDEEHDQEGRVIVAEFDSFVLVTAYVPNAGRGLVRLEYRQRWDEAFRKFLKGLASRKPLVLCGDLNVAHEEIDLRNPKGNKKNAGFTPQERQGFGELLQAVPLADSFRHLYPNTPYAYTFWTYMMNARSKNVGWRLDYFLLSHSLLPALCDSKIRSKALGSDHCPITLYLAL

Structure (SMILES)	IC50
CCCC/C(=C\C1=C(C)C(=O)c2ccccc2C1=O)C(=O)NCCOC [Example 20]	94 µM
CCCC/C(=C\C1=C(C)C(=O)c2ccccc2C1=O)C(=O)N1CCOCC1 [Example 18]	34 µM
CCC/C(=C\C1=C(OC)C(=O)c2ccccc2C1=O)C(=O)N(C)C [Example 2]	2.3 µM
CCCC/C(=C\C1=C(C)C(=O)c2ccccc2C1=O)C(=O)NC1CCCCC1 [Example 14]	98 µM
CCCC/C(=C\C1=C(C)C(=O)c2ccccc2C1=O)C(=O)NC1CC1 [Example 11]	14 µM
CCCC/C(=C/C1=C(C)C(=O)c2ccccc2C1=O)C(=O)N1CCOCC1 [Example 17]	25 µM
CCCC/C(=C\C1=C(C)C(=O)c2ccccc2C1=O)C(=O)N(C)OC [Example 16]	26 µM
CCCC/C(=C\C1=C(C)C(=O)c2ccccc2C1=O)C(=O)NCC [Example 8]	20 µM
CCC/C(=C\C1=C(O)C(=O)c2ccccc2C1=O)C(=O)O [Example 24]	> 10 µM
CCC/C(=C\C1=C(Cl)C(=O)c2ccccc2C1=O)C(=O)NOC [Example 22]	< 2.5 µM
CCCC/C(=C\C1=C(C)C(=O)C(OC)=C(OC)C1=O)C(=O)N(C)OC [Example 31]	24 µM
CCCC/C(=C\C1=C(C)C(=O)c2ccccc2C1=O)C(=O)O [Example 32]	47 to 52 µM
CCCCCCCCC/C(=C\C1=C(C)C(=O)C(OC)=C(OC)C1=O)C(=O)NOC [Example 29]	17 µM
CCCCCCCCC/C(=C\C1=C(C)C(=O)C(OC)=C(OC)C1=O)C(=O)N(C)CC(O)C(O)C(O)C(O)CO (stereo not drawn) [Example 30]	15 µM
CCCC/C(=C\C1=C(C)C(=O)c2ccccc2C1=O)C(=O)N1CCNC(=O)C1 [Example 15]	23 µM
CCCC/C(=C\C1=C(C)C(=O)c2ccccc2C1=O)C(=O)NC [Example 6]	17 µM
CCCC/C(=C\C1=C(C)C(=O)c2ccccc2C1=O)C(=O)N(C)C [Example 7]	23 µM
CCCC/C(=C/C1=C(C)C(=O)c2ccccc2C1=O)C(=O)NCCOC [Example 21]	40 µM

More lines, now with the values ahead:

IC50	Structure (SMILES)
120 µM	CCCC/C(=C\C1=C(C)C(=O)c2ccccc2C1=O)C(=O)N(CC)CC [Example 9]
< 1 µM	CCC/C(=C\C1=C(OC)C(=O)c2ccccc2C1=O)C(=O)N(CC)CC [Example 5]
2.6 µM	CCCC(=CC1=C(OC)C(=O)c2ccccc2C1=O)C(=O)N(C)C [Example 26]
0.5 µM	CCCC/C(=C\C1=C(OC)C(=O)c2ccccc2C1=O)C(=O)O [Example 33]
2.5 µM	CCC/C(=C\C1=C(Cl)C(=O)c2ccccc2C1=O)C(=O)N(CC)CC [Example 23]
3.3 µM	CCC/C(=C\C1=C(OC)C(=O)c2ccccc2C1=O)C(=O)NCC [Example 3]
6.2 µM	CCC/C(=C\C1=C(OC)C(=O)c2ccccc2C1=O)C(=O)NC [Example 1]
13 µM	CCCC(=CC1=C(OC)C(=O)c2ccccc2C1=O)C(=O)N(CC)CC [Example 25]
< 1 µM	CCCC/C(=C\C1=C(OC)C(=O)c2ccccc2C1=O)C(=O)NOC [Example 10]
